Measurements from EP0201732A2, “Beta-2-mimetics of the 4-aminophenylethanolamine type for the prevention of peptic ulcers” (BOEHRINGER INGELHEIM VETMEDICA GMBH, priority 1985, dated 1986).
Where a name gives a salt, the structure may show the parent alone.

Columns and labels:
[1] = Acute oral toxicity (LD50); conditions: mouse, in vivo, Maus, p.o.
Source text: (§1) Die verabreichte Substanz ist gut verträglich.

[2] = Tolerability in the treated calves: side effects, haematology and serum enzymes (random samples); assay type: in vivo, Kälber
Source text: (§2) Beispielsweise wurde die Verbindung 1-(4-Amino-3,5,-dichforphenyl)-2-tertbutyfamina-äthanol- hydrochlorid in einer Tagesdosis von 2 mcg/kg Körpergewicht, verteilt auf 2 Dosen, welche dem Futter beigemischt war, 32 bei Beginn der Behandlung ca. 70 Tage alten und ca. 100 kg schweren Kälbern im Vergleich zu einer gleichgroßen Kontrollgruppe fortgesetzt verabreicht.
as §1

peptische Labmagenulcera [3] = assay: Prevention of peptic abomasal ulcers in fattening calves, compound given as feed additive; abomasa dissected after slaughter; assay type: in vivo, Kälber; conditions: 2 mcg/kg body weight per day in 2 doses mixed into feed; 32 calves, ca. 70 days old and ca. 100 kg at start; treatment ended 14 days before slaughter; control group showed ulcers and haemorrhagic erosions
Source text: as §2
(§3) 14 Tage vor dem Schlachttermin wurde die Behandlung beendet.
Nach der Schlachtung zeigten sich bei der Sektion der Labmägen der Kontrollgruppe Läsionen der Labmagenschleimhaut in folgenden verschiedenen Stadien: • 3 Tiere hatten je ein Ulcus bis zu einem Durchmesser von 20 mm • 4 Tiere hatten mehrere Ulcera mit einem Durchmesser von 2 bis 15 mm
Weitere Tiere wiesen hämorrhagische Erosionen auf den Magenschleimhautfalten auf.

[4] = Feed consumption and final weight of the treated calves against the control group; assay type: in vivo, Kälber
Source text: as §2, §3
Außerdem wies bei einem Futterverbrauch der Versuchsgruppe von 344,3 kg pro Tier bzw. von 343,7 kg pro Tier der Kontrollgruppe die erstere eine um ca. 10 kg höhere Endgewicht pro Tier auf. Bei einem annähernd gleichen Futterverbrauch pro Tier bedeutet dies eine Steigerung der Fleischproduktion von ca. 320 kg in der Versuchsgruppe.

Magensäuresekretion = conditions: rat; doses higher by a factor of 100 than needed for the broncholytic effect; Arzneimittelforschung 26, 1404-1420 (1976); cited from earlier work
peptische Labmagenulcera [5] = conditions: dose not given

CC(C)(C)NCC(O)c1cc(Cl)c(N)c(Cl)c1 (centres unmarked) [1-(4-Amino-3,5-dichlor-phenyl)-2-tert.butylamino-äthanol-hydrochlorid]
LD50 [1]: 176 mg/kg
Nebenwirkungen ([2]; calves, 2 mcg/kg per day in feed): keinerlei Nebenwrikungen
hämatologische Untersuchung und Enzyme SGOT, CPK, LDH und GLDH ([2]; random samples, test group versus control group): keine signifikanten Unterschiede
Läsionen der Labmagenschleimhaut (peptische Labmagenulcera [3]): bei keinem Tier der Versuchsgruppe irgendwelche Läsionen der Labmagenschleimhaut feststellbar
höhere Endgewicht pro Tier ([4]; test group versus control group, 2 mcg/kg per day in feed): ca. 10 kg
Steigerung der Fleischproduktion ([4]; whole test group (32 calves) at nearly equal feed consumption per animal): ca. 320 kg

CC(C)(C)NCC(O)c1cc(Cl)c(N)c(Cl)c1 (centres unmarked) [1-(4-Amino-3,5-dichlor-phenyl)-2-tert.butylamino-äthanol]
Hemmwirkung auf die Magensäuresekretion (Magensäuresekretion): eine Hemmwirkung auf die Magensäuresekretion

CN/C(=N/CCSCc1nc[nH]c1C)NC#N [Cimetidine]
Behandlungsversuch (peptische Labmagenulcera [5]): erfolglos
